{"source": "patent US9918968B2", "about": "“Rapamycin analogs targeting proteasome function in the treatment of cancer” (THE BOARD OF REGENTS OF THE UNIVERSITY OF TEXAS SYSTEM, priority 2013, dated 2018)", "key": {"[1]": {"system": "MDA-MB-231 (triple-negative breast cancer) cells", "test": "Viability/growth of MDA-MB-231 cells", "format": "cell-based, human", "description": "The cells were grown in 24 or 12-well cell culture plates. […] The final concentration of the solvent was 1% (vol/vol). The number of live and dead cells after the treatment was approximated with calcein AM and ethidium homodimer (LiveDead test, Invitrogen) according to manufacturer's protocol, or by a Trypan Blue exclusion assay. In short, the cells after the treatment were washed three times with PBS and overlaid (surface-growing) or mixed (suspension-growing) with 4 microM calcein AM and 2 microM ethidium homodimer in PBS. […] The cell counts were approximated using standard curves of live and digitonin-killed cells prepared for each strain. Alternatively, after cell treatment the medium was removed, the surface growing cells were overlaid with Trypan Blue solution, and the colorless (live) and blue-colored (dead) cells were counted under the inverted microscope."}, "[2]": {"system": "MCF7 breast carcinoma cells", "test": "Live/dead cell count, MCF7 cells", "format": "cell-based, human", "details": "seco-rapamycin alone, 48 hrs, 100% = total cell count in control", "description": "Culture Collection; ATCC) were cultured according to ATCC specifications: HeLa.S3 cervical adenocarcinoma, MCF7 breast adenocarcinoma, MDA-MB-231 breast adenocarcinoma (representing triple negative breast cancer), and RPMI 8226 myeloma. The cells were grown in 24 or 12-well cell culture plates. When the cells reached about 60% confluency (surface-growing HeLa.S3,MCF7 and MDA-MB-231) or a density of about 7×10^5 (suspension-growing RPMI 8226), the inhibitors dissolved in DMSO or the solvent (DMSO) diluted in respective culture medium were added and the cells were further cultured for additional 48 hours. […] The final concentration of the solvent was 1% (vol/vol). The number of live and dead cells after the treatment was approximated with calcein AM and ethidium homodimer (LiveDead test, Invitrogen) according to manufacturer's protocol, or by a Trypan Blue exclusion assay. […] Fluorescence of calcein and DNA-bound ethidium homodimer was measured with Fluoroskan Ascent plate reader, at 485 nm (excitation)/538 nm (emission) and 530 nm/619 nm, respectively. […] Alternatively, after cell treatment the medium was removed, the surface growing cells were overlaid with Trypan Blue solution, and the colorless (live) and blue-colored (dead) cells were counted under the inverted microscope."}}, "data": [{"smiles": "CO[C@@H](C[C@@H]1CC[C@@H](C)[C@](O)(C(=O)C(=O)N2CCCC[C@H]2C(=O)[O-])O1)/C(C)=C/C=C/C=C/[C@@H](C)C[C@@H](C)C(=O)[C@H](OC)[C@H](O)/C(C)=C/[C@@H](C)C(=O)/C=C/[C@H](C)C[C@@H]1CC[C@@H](O)[C@H](OC)C1.[Na+]", "note": "[seco-rapamycin]", "values": [{"measurement": "EC50", "setting": "[1]; 24 hours, drug alone, read-out: EC50 (concentration required to exclude 50% of cells)", "result": 869, "unit": "nM"}, {"measurement": "growth of MDA-MB-231 cells", "setting": "[1]; seco-rapamycin alone", "result": "attenuated growth"}, {"measurement": "dead cells count", "setting": "[2]", "result": "about 60%"}]}]}
